We go through one molecule from PMC10266417, “LeishIF3d is a non-canonical cap-binding protein in Leishmania” (Frontiers in Molecular Biosciences, 2023).

One test deals with T1, LeishIF4E1 (Leishmania mexicana, UniProt E9AZ65).
T1 construct: gene LMXM_27_1620; endogenous untagged protein in L. mexicana promastigote extract, detected with specific antibodies
T1 sequence (E9AZ65 1-213): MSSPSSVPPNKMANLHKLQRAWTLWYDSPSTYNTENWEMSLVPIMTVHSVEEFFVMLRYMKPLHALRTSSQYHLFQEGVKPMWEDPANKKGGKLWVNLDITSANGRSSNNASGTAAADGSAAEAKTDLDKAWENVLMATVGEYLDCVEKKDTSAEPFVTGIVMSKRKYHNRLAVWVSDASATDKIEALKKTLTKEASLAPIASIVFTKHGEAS
Briefly: m7GTP-agarose affinity pull-down, western blot with LeishIF4E1-specific antibodies. Format: biochemical. As to conditions: L. mexicana extract; m7GTP immobilised on agarose; 20 mM HEPES pH 7.4, 50 mM NaCl; 100 uM GTP wash, 200 uM m7GTP elution; positive control.

For the next test, the target named is T2, LeishIF3d (Leishmania mexicana, UniProt E9B178).
T2 construct: gene LMXM_29_3040; full ORF (1596 bp); recombinant His-tagged from E. coli BL21 (pET52, Ni-NTA); mutants C-terminally SBP-tagged, expressed episomally in L. mexicana
T2 sequence (E9B178 1-531): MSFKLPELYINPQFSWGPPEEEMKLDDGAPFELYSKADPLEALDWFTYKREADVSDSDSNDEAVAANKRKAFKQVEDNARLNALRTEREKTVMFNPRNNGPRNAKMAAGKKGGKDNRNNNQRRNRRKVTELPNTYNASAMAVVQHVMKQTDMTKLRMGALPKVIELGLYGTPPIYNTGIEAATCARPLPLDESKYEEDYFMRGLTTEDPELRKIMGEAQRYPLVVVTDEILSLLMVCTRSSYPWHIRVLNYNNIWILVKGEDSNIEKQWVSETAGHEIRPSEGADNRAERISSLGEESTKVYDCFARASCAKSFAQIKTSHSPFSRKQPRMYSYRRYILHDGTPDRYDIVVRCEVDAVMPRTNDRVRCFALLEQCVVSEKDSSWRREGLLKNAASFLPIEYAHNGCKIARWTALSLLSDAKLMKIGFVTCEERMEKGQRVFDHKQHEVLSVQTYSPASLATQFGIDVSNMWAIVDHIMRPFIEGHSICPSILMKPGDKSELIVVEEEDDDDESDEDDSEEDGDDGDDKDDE
Description: m7GTP-agarose affinity binding of purified His-tagged protein, elution with free m7GTP, anti-His western blot. Conditions: m7GTP immobilised on agarose; eluted with free m7GTP. (In general: A western blot detects proteins with antibodies after separation by electrophoresis.)

As for `C[n+]1cn([C@@H]2O[C@H](COP(=O)(O)OP(=O)(O)OP(=O)(O)O)[C@@H](O)[C@H]2O)c2nc(N)[nH]c(=O)c21` [m^7GTP], on LeishIF4E1, the “m7GTP-agarose affinity pull-down, western blot with LeishIF4E1-specific antibodi” value is recorded as “LeishIF3d could bind m^7GTP, as did the positive control of LeishIF4E1”. Besides, the “m7GTP-agarose affinity binding of purified His-tagged protein, elution with free” value on LeishIF3d is on record as “direct binding of recombinant His-tagged LeishIF3d to m^7GTP”.
